Columns and labels:
[1] = target: Casein kinase I isoform delta (Homo sapiens, UniProt P48730); assay: Selectivity interaction (Kinase panel (literature)) EUB0001199aCl CSNK1D; conditions: at 1 µM
[2] = target: T1, Inhibitor of nuclear factor kappa-B kinase subunit alpha (Homo sapiens) (UniProt O15111); assay: Selectivity interaction (KinomeScan (DiscoverX)) EUB0000618a CHUK; conditions: at 10 µM
T1 sequence (whole entry): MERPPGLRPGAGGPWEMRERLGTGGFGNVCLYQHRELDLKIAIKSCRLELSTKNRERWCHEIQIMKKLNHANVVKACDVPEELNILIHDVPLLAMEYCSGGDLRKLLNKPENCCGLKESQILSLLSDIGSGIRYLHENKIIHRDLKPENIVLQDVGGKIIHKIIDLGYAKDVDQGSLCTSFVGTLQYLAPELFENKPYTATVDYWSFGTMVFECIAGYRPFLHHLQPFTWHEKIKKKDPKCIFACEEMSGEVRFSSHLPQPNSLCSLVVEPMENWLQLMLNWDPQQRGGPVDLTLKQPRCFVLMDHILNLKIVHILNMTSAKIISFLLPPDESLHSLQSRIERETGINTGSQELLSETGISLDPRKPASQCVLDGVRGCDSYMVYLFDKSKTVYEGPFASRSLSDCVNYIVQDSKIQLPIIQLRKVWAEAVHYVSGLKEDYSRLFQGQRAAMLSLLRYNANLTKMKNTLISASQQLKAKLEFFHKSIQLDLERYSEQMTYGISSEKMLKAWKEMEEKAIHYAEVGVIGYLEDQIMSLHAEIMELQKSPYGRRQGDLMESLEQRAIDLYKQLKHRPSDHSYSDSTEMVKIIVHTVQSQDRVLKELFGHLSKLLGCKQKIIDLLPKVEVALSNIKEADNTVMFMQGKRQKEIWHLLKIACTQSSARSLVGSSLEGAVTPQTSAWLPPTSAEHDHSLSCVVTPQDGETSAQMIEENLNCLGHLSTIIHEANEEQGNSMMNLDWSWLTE

[3] = target: Tyrosine-protein kinase Lyn (Homo sapiens, UniProt P07948); assay: Selectivity interaction (KinomeScan (DiscoverX)) EUB0000618a LYN; conditions: at 10 µM
[4] = target: Tyrosine-protein kinase receptor UFO (Homo sapiens) (UniProt P30530); assay: Selectivity interaction (KinomeScan (DiscoverX)) EUB0000229b AXL; conditions: at 10 µM
Nav1.5 (SCN5A) = Nav1.5 (SCN5A) (Homo sapiens, UniProt Q14524); assay: Selectivity interaction (Panel of kinases, GPCRs, ion channels and transporters (enzymatic assay)) EUB0000266bCl SCN5A
[5] = target: T2, Serine/threonine-protein kinase RIO3 (Homo sapiens) (UniProt O14730); assay: Selectivity interaction (KinomeScan (DiscoverX)) EUB0000666a RIOK3; conditions: at 10 µM
T2 sequence (whole entry): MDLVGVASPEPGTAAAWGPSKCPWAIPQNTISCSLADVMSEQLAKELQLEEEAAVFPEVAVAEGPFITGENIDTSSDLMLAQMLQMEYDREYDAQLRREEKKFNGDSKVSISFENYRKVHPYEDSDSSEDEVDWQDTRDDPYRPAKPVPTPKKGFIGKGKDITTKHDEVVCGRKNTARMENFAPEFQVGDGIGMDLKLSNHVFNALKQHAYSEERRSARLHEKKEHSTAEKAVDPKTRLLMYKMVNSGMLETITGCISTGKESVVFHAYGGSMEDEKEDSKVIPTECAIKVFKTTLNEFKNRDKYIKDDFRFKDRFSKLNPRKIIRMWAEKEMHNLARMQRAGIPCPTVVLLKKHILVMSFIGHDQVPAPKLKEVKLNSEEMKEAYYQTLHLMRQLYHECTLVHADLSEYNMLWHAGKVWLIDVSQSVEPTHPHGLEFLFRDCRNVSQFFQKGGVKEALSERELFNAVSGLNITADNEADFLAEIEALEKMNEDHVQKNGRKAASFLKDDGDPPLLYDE

[6] = target: Fibroblast growth factor receptor 3 (Homo sapiens, UniProt P22607); assay: Selectivity interaction (KinomeScan (DiscoverX)) EUB0000092b FGFR3; conditions: at 10 µM
[7] = target: T3, Protein kinase C epsilon type (Homo sapiens) (UniProt Q02156); assay: Selectivity interaction (KinomeScan (DiscoverX)) EUB0000695a PRKCE; conditions: at 100 nM
T3 sequence (whole entry): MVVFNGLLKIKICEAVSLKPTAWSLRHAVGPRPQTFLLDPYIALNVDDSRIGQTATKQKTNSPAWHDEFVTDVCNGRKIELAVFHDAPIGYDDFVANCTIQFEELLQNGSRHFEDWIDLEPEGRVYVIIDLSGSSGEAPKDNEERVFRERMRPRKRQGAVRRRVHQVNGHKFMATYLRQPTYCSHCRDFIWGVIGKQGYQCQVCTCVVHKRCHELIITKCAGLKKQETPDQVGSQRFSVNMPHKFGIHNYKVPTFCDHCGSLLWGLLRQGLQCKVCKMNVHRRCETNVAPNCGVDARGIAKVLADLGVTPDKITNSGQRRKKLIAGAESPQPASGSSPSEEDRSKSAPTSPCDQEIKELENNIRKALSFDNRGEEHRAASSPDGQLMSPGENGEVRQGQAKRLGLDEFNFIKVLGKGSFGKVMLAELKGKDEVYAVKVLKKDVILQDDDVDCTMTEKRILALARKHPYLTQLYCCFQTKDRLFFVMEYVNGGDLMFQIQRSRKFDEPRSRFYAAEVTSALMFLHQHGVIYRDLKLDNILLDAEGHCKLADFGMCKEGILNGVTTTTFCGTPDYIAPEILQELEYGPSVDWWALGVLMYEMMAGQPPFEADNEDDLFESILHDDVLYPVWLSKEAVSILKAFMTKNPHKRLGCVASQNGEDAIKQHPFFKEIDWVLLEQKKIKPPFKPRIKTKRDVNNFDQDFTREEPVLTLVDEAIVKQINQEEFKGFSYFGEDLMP

Chain of Tyrosine-protein kinase receptor UFO (Homo sapiens) (P30530 whole entry): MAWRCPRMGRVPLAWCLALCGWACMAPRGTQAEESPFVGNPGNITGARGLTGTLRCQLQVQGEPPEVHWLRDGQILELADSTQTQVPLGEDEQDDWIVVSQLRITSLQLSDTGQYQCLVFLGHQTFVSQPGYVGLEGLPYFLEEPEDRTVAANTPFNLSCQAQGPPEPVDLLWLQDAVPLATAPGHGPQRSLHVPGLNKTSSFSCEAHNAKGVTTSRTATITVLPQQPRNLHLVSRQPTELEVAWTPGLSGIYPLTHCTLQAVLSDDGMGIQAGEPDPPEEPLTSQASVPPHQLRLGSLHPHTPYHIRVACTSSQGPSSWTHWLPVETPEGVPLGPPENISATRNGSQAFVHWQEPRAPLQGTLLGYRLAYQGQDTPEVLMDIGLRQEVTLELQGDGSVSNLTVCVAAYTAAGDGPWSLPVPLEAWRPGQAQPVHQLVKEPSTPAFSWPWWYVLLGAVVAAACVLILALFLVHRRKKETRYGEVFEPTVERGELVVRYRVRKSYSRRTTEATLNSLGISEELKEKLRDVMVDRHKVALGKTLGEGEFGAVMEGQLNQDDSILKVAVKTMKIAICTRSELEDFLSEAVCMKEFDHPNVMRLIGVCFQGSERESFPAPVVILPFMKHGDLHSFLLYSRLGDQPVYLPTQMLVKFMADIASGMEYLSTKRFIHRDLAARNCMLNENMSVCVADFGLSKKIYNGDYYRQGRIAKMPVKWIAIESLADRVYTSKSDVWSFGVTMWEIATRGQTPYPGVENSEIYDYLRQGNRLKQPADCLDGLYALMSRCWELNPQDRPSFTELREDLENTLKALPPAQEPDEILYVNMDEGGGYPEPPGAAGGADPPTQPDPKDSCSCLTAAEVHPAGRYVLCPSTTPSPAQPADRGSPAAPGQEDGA
Chain of Nav1.5 (SCN5A) (Q14524 whole entry): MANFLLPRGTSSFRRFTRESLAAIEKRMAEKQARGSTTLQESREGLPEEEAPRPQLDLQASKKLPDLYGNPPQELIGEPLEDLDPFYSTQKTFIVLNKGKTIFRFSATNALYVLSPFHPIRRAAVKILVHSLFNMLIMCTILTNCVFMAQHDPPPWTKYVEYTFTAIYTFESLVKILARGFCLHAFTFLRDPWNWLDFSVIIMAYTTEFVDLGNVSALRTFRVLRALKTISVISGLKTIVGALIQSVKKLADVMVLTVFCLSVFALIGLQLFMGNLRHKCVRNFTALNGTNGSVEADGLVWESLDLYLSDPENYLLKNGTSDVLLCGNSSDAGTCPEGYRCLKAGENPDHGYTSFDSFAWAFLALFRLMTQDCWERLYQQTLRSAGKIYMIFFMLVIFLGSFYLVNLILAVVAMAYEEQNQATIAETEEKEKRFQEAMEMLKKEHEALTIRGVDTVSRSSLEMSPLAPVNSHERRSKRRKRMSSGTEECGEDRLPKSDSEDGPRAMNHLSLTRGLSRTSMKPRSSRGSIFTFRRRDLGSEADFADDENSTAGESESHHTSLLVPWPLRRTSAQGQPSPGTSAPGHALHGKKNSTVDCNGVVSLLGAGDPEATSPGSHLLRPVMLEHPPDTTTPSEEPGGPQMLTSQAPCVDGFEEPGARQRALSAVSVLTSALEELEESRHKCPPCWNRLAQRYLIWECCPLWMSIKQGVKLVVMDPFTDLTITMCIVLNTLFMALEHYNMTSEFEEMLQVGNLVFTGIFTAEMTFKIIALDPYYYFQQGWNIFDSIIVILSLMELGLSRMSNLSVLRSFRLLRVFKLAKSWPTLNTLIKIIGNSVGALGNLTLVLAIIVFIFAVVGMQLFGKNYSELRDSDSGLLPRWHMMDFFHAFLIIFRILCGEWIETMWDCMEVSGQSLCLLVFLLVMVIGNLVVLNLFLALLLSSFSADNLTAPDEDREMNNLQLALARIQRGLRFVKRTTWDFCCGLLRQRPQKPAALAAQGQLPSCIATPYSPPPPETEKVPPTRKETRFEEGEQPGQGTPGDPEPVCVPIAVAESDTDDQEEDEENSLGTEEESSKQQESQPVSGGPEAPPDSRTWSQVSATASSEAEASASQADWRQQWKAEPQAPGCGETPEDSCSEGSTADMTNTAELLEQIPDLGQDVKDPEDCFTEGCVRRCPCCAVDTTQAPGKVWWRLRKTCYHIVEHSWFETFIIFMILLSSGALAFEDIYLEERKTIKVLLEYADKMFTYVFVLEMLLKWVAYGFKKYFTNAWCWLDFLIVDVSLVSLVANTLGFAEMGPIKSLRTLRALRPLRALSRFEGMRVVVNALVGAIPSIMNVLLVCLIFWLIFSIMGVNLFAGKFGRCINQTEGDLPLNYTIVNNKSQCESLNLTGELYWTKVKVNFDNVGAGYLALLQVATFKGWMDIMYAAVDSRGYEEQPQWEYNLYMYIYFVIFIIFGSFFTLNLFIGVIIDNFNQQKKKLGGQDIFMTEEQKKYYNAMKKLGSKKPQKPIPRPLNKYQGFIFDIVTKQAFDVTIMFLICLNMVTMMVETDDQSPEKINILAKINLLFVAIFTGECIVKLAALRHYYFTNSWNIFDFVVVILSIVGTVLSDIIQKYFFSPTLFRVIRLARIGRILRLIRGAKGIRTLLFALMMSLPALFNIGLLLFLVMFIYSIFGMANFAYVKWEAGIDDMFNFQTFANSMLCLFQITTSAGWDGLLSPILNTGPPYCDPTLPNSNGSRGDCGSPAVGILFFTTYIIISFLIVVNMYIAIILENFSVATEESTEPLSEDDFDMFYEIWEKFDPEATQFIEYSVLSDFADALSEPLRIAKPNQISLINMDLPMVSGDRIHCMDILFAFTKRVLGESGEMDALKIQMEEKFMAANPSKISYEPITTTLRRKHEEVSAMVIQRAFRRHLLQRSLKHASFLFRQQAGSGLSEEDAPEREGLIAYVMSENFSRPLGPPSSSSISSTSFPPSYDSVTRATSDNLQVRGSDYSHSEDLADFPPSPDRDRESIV
Chain of Fibroblast growth factor receptor 3 (P22607 23-806 limits assumed): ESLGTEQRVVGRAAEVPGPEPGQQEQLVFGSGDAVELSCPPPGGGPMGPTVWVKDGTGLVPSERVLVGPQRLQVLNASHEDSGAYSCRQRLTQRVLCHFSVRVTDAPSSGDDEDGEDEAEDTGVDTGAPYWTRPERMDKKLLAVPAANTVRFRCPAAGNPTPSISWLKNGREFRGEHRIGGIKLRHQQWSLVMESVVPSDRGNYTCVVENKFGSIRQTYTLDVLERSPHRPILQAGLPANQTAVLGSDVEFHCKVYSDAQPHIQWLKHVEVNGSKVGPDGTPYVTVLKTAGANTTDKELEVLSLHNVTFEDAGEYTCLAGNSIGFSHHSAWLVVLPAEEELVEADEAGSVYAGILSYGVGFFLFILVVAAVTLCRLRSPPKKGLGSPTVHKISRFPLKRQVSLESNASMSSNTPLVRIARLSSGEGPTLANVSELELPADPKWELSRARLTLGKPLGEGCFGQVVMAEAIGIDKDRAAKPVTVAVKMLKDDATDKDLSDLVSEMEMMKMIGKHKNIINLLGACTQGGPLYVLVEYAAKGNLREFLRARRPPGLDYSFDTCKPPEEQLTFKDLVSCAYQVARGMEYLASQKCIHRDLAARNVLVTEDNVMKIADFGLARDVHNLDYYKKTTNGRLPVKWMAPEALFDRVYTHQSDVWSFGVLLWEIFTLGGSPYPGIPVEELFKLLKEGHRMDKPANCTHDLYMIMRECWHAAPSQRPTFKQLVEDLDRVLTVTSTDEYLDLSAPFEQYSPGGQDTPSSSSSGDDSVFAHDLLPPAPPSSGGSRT
Chain of Tyrosine-protein kinase Lyn (P07948 2-512 limits assumed): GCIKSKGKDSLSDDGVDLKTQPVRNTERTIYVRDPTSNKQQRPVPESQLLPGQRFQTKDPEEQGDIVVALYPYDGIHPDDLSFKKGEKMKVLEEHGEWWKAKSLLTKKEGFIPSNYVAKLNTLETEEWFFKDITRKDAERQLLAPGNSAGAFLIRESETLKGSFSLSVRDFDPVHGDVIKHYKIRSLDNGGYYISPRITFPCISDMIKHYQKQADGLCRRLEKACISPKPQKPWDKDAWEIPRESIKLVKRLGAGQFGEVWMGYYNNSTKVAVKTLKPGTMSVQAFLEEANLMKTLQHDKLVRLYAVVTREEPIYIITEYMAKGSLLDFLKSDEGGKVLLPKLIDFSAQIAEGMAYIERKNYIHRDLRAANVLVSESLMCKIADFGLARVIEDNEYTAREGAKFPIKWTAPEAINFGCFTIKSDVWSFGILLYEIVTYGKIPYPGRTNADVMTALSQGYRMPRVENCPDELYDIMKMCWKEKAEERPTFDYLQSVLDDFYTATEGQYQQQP
Chain of Casein kinase I isoform delta (P48730 whole entry, looked up, canonical isoform): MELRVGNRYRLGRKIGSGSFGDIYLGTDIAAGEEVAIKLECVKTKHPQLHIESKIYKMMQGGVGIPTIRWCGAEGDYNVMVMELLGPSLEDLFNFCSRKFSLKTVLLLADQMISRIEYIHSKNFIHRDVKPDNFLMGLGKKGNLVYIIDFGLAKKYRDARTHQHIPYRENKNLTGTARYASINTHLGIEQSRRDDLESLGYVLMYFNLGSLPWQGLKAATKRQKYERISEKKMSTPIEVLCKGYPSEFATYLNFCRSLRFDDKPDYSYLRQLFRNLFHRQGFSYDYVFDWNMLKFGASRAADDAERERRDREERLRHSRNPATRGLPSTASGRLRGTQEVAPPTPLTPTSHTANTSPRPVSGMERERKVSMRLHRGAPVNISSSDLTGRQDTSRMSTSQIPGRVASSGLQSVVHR

Q: Which % of inhibition [1] does the source give for `CN1Cc2nccc(-c3cn(C)nc3-c3ccc(F)cc3)c2C1=O` here?
A: 94%

Q: Which % of control [2] does the source give for `O[C@H]1CC[C@H](Nc2ncc3nc(Nc4c(F)cc(F)cc4F)n([C@H]4CCOC4)c3n2)CC1` here?
A: 86%

Q: And the % of control [3]?
A: 98%

Q: How did the % binding [4] turn out when `COc1cc(N(C)c2ccnc3ccc(C(F)(F)F)cc23)cc(OC)c1OC` was run?
A: 86%

Q: `CCn1c(-c2nc3cc(C(=O)N4CCCC(N)C4)ccc3n2C)cc2ccccc21` (stereo not drawn) was tested. Which XC50 (Nav1.5 (SCN5A)) did it give?
A: 31.6 µM

Q: How did the % of control [5] turn out when `O=C(NOC[C@H](O)CO)c1ccc(F)c(F)c1Nc1ccc(I)cc1F` was run?
A: 100%

Q: For `CCC(=O)N1CCN(c2ccc(-n3c(=O)ccc4cnc5ccc(-c6cnc7ccccc7c6)cc5c43)cc2C(F)(F)F)CC1`, which % of control [6] is on record?
A: 42%

Q: Which % of control [7] does the source give for `Cc1cc(F)c(C(=O)Nc2cccc(-c3nncn3C(C)C)n2)cc1-n1cnc(C2CC2)c1` here?
A: 97%

Reference: ChEMBL document CHEMBL5465560, “Selectivity Literature for EUbOPEN Chemogenomic Library” (2024)
